Data taken from patent publication US20130059876A1, “LIQUID NASAL SPRAY CONTAINING LOW-DOSE NALTREXONE” (L Molteni & C Dei Fratelli Alitti Societa Di Esercizio S.p.A, priority 2010, published 2013).
Values joined by “and” are separate entries in the source; they are usually repeats but may differ in a detail not shown here. Equal values may be shown once.

Key:
patients = patients (total number 80) before treatment with Naltrexone
[1] = tested on: Oncologic patients receiving therapy with morphine orally; test: Clinical study: naltrexone in oncologic patients receiving therapy with morphine orally; type: in vivo; conditions: individual patient, ½ hour before oral morphine (average 40 mg +/- 10 mg)
[2] = tested on: Spine patients undergoing therapy with morphine by the spinal route; test: Clinical study: naltrexone in spine patients undergoing therapy with morphine by the spinal route; type: in vivo; conditions: individual patient, ½ hour before epidural load, spinal morphine (average 4.8 mg +/- 0.4 mg)
[3] = naltrexone 0.125 mcg every 12 hours
[4] = naltrexone 2.5 mcg every 12 hours
[5] = naltrexone 5 mcg every 12 hours
[6] = naltrexone 1 mcg every 12 hours

CN1CC[C@]23c4c5ccc(O)c4O[C@H]2[C@@H](O)C=C[C@H]3[C@H]1C5 [morphine]
Incidence of adverse effects from morphine: Asthenia (patients): 43.3% | Incidence of adverse effects from morphine: Constipation (patients): 70% | Incidence of adverse effects from morphine: Dizziness (patients): 13.3% | Incidence of adverse effects from morphine: Drowsiness (patients): 30% | Incidence of adverse effects from morphine: Headache (patients): 6.7% | Incidence of adverse effects from morphine: Inappetence (patients): 46.7% | Incidence of adverse effects from morphine: Nausea (patients): 53.3% | Incidence of adverse effects from morphine: Pruritus (patients): 30% | Incidence of adverse effects from morphine: Vomiting (patients): 53.3%

O=C1CC[C@@]2(O)[C@H]3Cc4ccc(O)c5c4[C@@]2(CCN3CC2CC2)[C@H]1O5 [Naltrexone, naltrexone]
Analgesia (%): analgesic efficacy after administration of naltrexone ([1]; naltrexone 1 mg every 12 hours): 100% (8×) and 90% (2×) and 65% (2×) and 60% (2×) and 70% (3×) and 65%** (3×) and 55% and 75%** and 70%** and 85% (2×) and 45%** and 45% | Benefit (%): percentage reduction of adverse effects ([1]; naltrexone 1 mg every 12 hours): 90% (3×) and 65% (8×) and 40% (2×) and 70% (4×) and 100% (3×) and 75% and 95% and 0% and 55% and 50% and 80% (2×) | Analgesia (%): analgesic efficacy after administration of naltrexone [1, 3]: 45% (2×) and 55%** and 65%** and 60% | Benefit (%): percentage reduction of adverse effects [1, 3]: 65% (3×) and 40% and 100% | Analgesia (%): analgesic efficacy after administration of naltrexone ([1]; naltrexone 0.125 mcg/day): 60% | Benefit (%): percentage reduction of adverse effects ([1]; naltrexone 0.125 mcg/day): 100% | Analgesia (%): analgesic efficacy after administration of naltrexone [1, 4]: 0% and 45% (7×) and 55% (2×) and 60%** and 100% (2×) and 70% and 60% (3×) and 40% | Benefit (%): percentage reduction of adverse effects [1, 4]: 100% and 80% (5×) and 70% and 50% (3×) and 65% (2×) and 40% and 60% (2×) and 25% and 55% and 90% | Analgesia (%): analgesic efficacy after administration of naltrexone ([1]; naltrexone 2.5 mcg/day): 60% | Benefit (%): percentage reduction of adverse effects ([1]; naltrexone 2.5 mcg/day): 90% | Analgesia (%): analgesic efficacy after administration of naltrexone [1, 5]: 45% (2×) and 55% (5×) and 70% and 100% (3×) and 90% (3×) and 60% (3×) and 65% and 60%** (2×) and 65%** and 55%** and 70%** | Benefit (%): percentage reduction of adverse effects [1, 5]: 60% (4×) and 0% and 70% and 50% (3×) and 45% (4×) and 85% (2×) and 55% (2×) and 35% and 40% (2×) and 65% and 100% (2×) | Analgesia (%): analgesic efficacy after administration of naltrexone ([2]; naltrexone 1 mg every 12 hours): 95% and 60% and 65% | Benefit (%): percentage reduction of adverse effects ([2]; naltrexone 1 mg every 12 hours): 65% (2×) and 50% | Analgesia (%): analgesic efficacy after administration of naltrexone [2, 6]: 65% and 45% (2×) | Benefit (%): percentage reduction of adverse effects [2, 6]: 65% and 70% and 100% | Analgesia (%): analgesic efficacy after administration of naltrexone [2, 4]: 45% (2×) and 75% and 60% and 55% (2×) and 90% and 0% and 100% (3×) and 85% | Benefit (%): percentage reduction of adverse effects [2, 4]: 45% (2×) and 80% (4×) and 60% (3×) and 100% (2×) and 95% | Analgesia (%): analgesic efficacy after administration of naltrexone [2, 5]: 45% and 100% and 60% (3×) and 35% and 85% and 15% | Benefit (%): percentage reduction of adverse effects [2, 5]: 70% (2×) and 95% and 50% (3×) and 65% and 30%
